Values quoted from earlier work, collected in patent US6852718B2, “Phenylsulphonylipiperazinyl derivatives as 5-HT receptor ligands” (Merck Sharp & Dohme Ltd, priority 2000, dated 2005).

Molecular target: human dopamine D2 receptor (Homo sapiens, UniProt P14416)
Sequence (P14416 whole entry): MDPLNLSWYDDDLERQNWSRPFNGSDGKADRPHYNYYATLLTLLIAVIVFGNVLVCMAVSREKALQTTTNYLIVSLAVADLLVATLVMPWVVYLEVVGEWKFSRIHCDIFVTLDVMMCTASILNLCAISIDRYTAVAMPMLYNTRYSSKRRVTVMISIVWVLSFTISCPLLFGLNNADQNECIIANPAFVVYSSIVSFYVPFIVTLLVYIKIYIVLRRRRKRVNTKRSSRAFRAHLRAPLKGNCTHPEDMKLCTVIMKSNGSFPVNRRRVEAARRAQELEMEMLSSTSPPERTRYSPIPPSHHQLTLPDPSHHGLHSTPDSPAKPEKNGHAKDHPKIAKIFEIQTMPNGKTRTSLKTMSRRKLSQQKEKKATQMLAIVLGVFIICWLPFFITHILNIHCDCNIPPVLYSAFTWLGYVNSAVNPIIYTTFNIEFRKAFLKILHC

activity at the human dopamine D2 receptor: essentially devoid of activity
SMILES: COc1cccc(C(O)C2CCN(CCc3ccc(F)cc3)CC2)c1OC (stereo not drawn) [MDL-100,907, (+)-α-(2,3-dimethoxyphenyl)-1-[2-(4-fluorophenyl)-ethyl]-4-piperidinemethanol]
